Test results reported in US4988699A, “Substituted tetrahydrobenzothiazoles as dopaminergic agents” (Warner-Lambert Company, priority 1989, dated 1991).
pIC50: −log10 of the molar value. Where two headings read alike, the source gives them in different places.

Experiments:
[1] = tested on: locomotor activity in mice; assay: Inhibition of locomotor activity in mice; type: in vivo; conditions: for ED50: Mus musculus, ip, read-out: Inhibition of Locomotor Activity in Mice ED50
Procedure: (§1) The compounds of Formula I are valuable dopaminergic agents. […] Thus, the compounds of Formula I were tested for their ability to inhibit locomotor activity in mice according to the assay described by J. R. McLean, et al, Pharmacology, Biochemistry and Behavior, Volume 8, pages 97-99 (1978); for their ability to inhibit haloperidol binding in a receptor assay described by D. R. Burt, et al, Molecular Pharmacology, Volume 12, pages 800-812 (1976); and for their ability to inhibit dopamine synthesis in rats according to the protocol described by J. R. Walters and R. H. Roth, Naunyn--Schmiedeberg's Archives of Pharmacology, Volume 296, pages 5-14 (1976). The above test methods are incorporated herein by reference.

[2] = tested on: dopamine synthesis in rats; assay: Inhibition of dopamine synthesis in rats; type: in vivo; conditions: IP
Procedure: as §1

[3] = target: T1, haloperidol binding in a receptor assay (Bos taurus, UniProt P20288); assay: Inhibition of haloperidol binding
T1 construct: from tissue; host or cells: calf brain (caudate/striatal) membranes, inferred from the cited method
T1 sequence (P20288 whole entry): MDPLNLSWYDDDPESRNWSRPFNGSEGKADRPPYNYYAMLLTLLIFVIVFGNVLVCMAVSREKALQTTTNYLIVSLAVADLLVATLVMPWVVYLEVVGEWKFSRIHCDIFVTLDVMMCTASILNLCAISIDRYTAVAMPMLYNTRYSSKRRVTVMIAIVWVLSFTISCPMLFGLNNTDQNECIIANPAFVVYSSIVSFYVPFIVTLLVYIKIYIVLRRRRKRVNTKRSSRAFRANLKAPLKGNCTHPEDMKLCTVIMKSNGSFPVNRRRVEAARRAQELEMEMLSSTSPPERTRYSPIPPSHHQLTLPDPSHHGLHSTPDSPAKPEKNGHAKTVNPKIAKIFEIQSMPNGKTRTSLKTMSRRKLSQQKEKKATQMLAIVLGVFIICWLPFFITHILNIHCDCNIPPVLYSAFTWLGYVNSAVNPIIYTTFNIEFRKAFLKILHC
Procedure: as §1

Q: Which results are given for `Nc1nc2c(s1)CC(N1CCN(c3ccccn3)CC1)CC2` (racemic) [Example 1, (±)-4,5,6,7-Tetrahydro-6-[4-(2-pyridinyl)-1-piperazinyl]-2-benzothiazolamine]?
A: ED50 ([1]; mice, IP): 6.6 mg/kg; Inhibition of Dopamine Synthesis in Rats ([2]; at 4.4 mg/kg): 50%; pIC50 [3]: 6.06

Q: For `Nc1nc2c(s1)CC(N1CC=C(c3ccccc3)CC1)CC2` (racemic) [Example 1a, (±)-6-(3,6-Dihydro-4-phenyl-1(2H)-pyridinyl)-4,5,6,7-tetrahydro-2-benzothiazolamine], which ED50 [1] is on record?
A: 1.5 mg/kg

Q: What about the “Inhibition of Dopamine Synthesis in Rats” value ([2]; at 10 mg/kg) of the same molecule?
A: 69%

Q: `Nc1nc2c(s1)CC(N1CCN(c3ccccc3)CC1)CC2` (racemic) [Example 1b, (±)-4,5,6,7-Tetrahydro-6-(4-phenyl-1-piperazinyl)-2-benzothiazolamine] was tested. Which ED50 ([1]; mice, IP) did it give?
A: 6.1 mg/kg

Q: How did the ED50 ([1]; mice, IP) turn out when `Nc1nc2c(s1)CC(N1CCN(c3ncccn3)CC1)CC2` (racemic) [Example 1c, (±)-4,5,6,7-Tetrahydro-6-[4-(2-pyrimidinyl)-1-piperazinyl]-2-benzothiazolamine] was run?
A: 30 mg/kg

Q: For `O=C(Nc1nc2c(s1)CC(N1CCN(c3ccccn3)CC1)CC2)c1ccccc1` (racemic) [Example 2, (±)-N-[4,5,6,7-Tetrahydro-6-[4-(2-pyridinyl)-1-piperazinyl]-2-benzothiazolyl]benzamide], which ED50 ([1]; mice, IP) is on record?
A: 3.7 mg/kg

Q: And the “Inhibition of Dopamine Synthesis in Rats” value ([2]; at 10 mg/kg)?
A: 59%

Q: With `c1ccc(N2CCN(CC3CCc4ncsc4C3)CC2)nc1` (racemic) [Example 5, (±)-4,5,6,7-tetrahydro-6-[[4-(2-pyridinyl)-1-piperazinyl]methyl]benzothiazole] as the molecule, how does the ED50 ([1]; mice, IP) read?
A: 7.4 mg/kg

Q: How did the ED50 ([1]; mice, IP) turn out when `Nc1nc2c(s1)CC(CN1CCN(c3ccccn3)CC1)CC2` (racemic) [Example 7, (±)-4,5,6,7-Tetrahydro-6-[[4-(2-pyridinyl)-1-piperazinyl]methyl]-2-benzothiazolamine] was run?
A: 7.2 mg/kg

Q: And the “Inhibition of Dopamine Synthesis in Rats” value ([2]; at 10 mg/kg)?
A: 48%

Q: With `Nc1nc2c(s1)CC(CN1CC=C(c3ccccc3)CC1)CC2` (racemic) [Example 8, (±)-6-[(3,6-Dihydro-4-phenyl-1(2H)-pyridinyl)methyl]-4,5,6,7-tetrahydro-2-benzothiazolamine] as the molecule, how does the ED50 [1] read?
A: 0.75 mg/kg

Q: Which results are given for `Nc1nc2c(s1)CC(CCN1CCN(c3ccccn3)CC1)CC2` (racemic) [Example 9, (±)-4,5,6,7-Tetrahydro-6-[2-[4-(2-pyridinyl)-1-piperazinyl]ethyl]-2-benzothiazolamine]?
A: ED50 ([1]; mice, IP): 0.21 mg/kg; Inhibition of Dopamine Synthesis in Rats ([2]; at 1.3 mg/kg): 50%; pIC50 [3]: 6.98

Q: With `Nc1nc2c(s1)CC(CCN1CC=C(c3ccccc3)CC1)CC2` (racemic) [Example 10, (±)-6-[2-(3,6-Dihydro-4-phenyl-1(2H)-pyridinyl)ethyl]-4,5,6,7-tetrahydro-2-benzothiazolamine] as the molecule, how does the ED50 [1] read?
A: 0.4 mg/kg

Q: For `Nc1nc2c(s1)CC(N1CCN(c3ccccn3)CC1)CC2` (single isomer, unassigned; (+)) [Example 3, (+)-4,5,6,7-Tetrahydro-6-[4-(2-pyridinyl)-1-piperazinyl]-2-benzothiazolamine], which ED50 ([1]; mice, IP) is on record?
A: 9.9 mg/kg

Q: And the “Inhibition of Dopamine Synthesis in Rats” value ([2]; at 7.0 mg/kg)?
A: 50%

Q: What about the pIC50 [3] of the same molecule?
A: ~6.10

Q: Which “Inhibition of Locomotor Activity in Mice ED50” value ([1]; mice, IP) does the source give for `Nc1nc2c(s1)CC(CCN1CCN(c3ccccn3)CC1)CC2` (single isomer, unassigned; (+)) [Example 11, (+)-4,5,6,7-Tetrahydro-6-[2-[4-(2-pyridinyl)-1-piperazinyl]ethyl]-2-benzothiazolamine] here?
A: 0.37 mg/kg

Q: What about the “Inhibition of Dopamine Synthesis in Rats” value ([2]; at 0.8 mg/kg) of the same molecule?
A: 50%

Q: Which “Inhibition of Locomotor Activity in Mice ED50” value ([1]; mice, IP) does the source give for `Nc1nc2c(s1)CC(N1CCN(c3ccccn3)CC1)CC2` (single isomer, unassigned; (-)) [Example 4, (-)-4,5,6,7-Tetrahydro-6-[4-(2-pyridinyl)-1-piperazinyl]-2-benzothiazolamine] here?
A: 7.4 mg/kg

Q: What about the “Inhibition of Dopamine Synthesis in Rats” value ([2]; at 4.8 mg/kg) of the same molecule?
A: 50%

Q: And the pIC50 [3]?
A: ~5.82

Q: What does the source list for `Nc1nc2c(s1)CC(CCN1CCN(c3ccccn3)CC1)CC2` (single isomer, unassigned; (-)) [Example 11a, (-)-4,5,6,7-Tetrahydro-6-[2-[4-(2-pyridinyl)-1-piperazinyl]ethyl]-2-benzothiazolamine]?
A: ED50 ([1]; mice, IP): 0.2 mg/kg; Inhibition of Dopamine Synthesis in Rats ([2]; at 0.2 mg/kg): 50%
